Data as given in patent US20230131248A1, “A SKIN TEST PLATFORM FORMED FROM A COMPOSITE MATERIAL” (Nanyang Technological University, priority 2020, published 2023).

Assay: Penetration of niacinamide and glycerin into silk artificial epidermis (cross-sectional Raman spectroscopy)
Assay type: in vitro ADME
Conditions: applied on surface for 30 min and 4 h
Procedure: LabRAM Soleil™ Raman spectroscopy was used to measure the penetration of compounds into the silk film. The silk artificial epidermis was first immersed in water for 10 min. Then, the silk artificial epidermis was taken out and wiped with a wiper to remove surface water. Next, niacinamide or glycerin was applied on the surface of the silk artificial epidermis and left to sit for 30 min or 4 h. Finally, the resultant sample was taken for cross-sectional Raman spectroscopy to determine the penetration of the chemicals into silk artificial epidermis.

Row | penetration depth into silk artificial epidermis | Compound
1 | penetrate into half-depth | OCC(O)CO [glycerin]
2 | penetrate into half-depth | NC(=O)c1cccnc1 [niacinamide]
